Assay [1] deals with Voltage-gated inwardly rectifying potassium channel KCNH2 (Homo sapiens, UniProt Q12809). To be noted: Potency.
Assay [2] deals with T1, Eukaryotic translation initiation factor 4H (Homo sapiens, UniProt Q15056). Description: eIF4H binding inhibition – biochemical, uHTS, fluorescence polarization, translation initiation inhibitor project, primary screen (AID 2012). In general terms: In fluorescence polarisation assays a small probe gives low polarisation when free and higher when bound to something large.

Assay [3] addresses T2, Polyadenylate-binding protein 1 (Homo sapiens, UniProt P11940). Description: blockers of PABP interaction with poly(A) – biochemical, fluorescence polarization, […] (AID 2014).
Assay [4] has as its target T1, Eukaryotic translation initiation factor 4H. Description: inhibitors of translation initiation factor eIF4H – SAR follow-up (AID 435011). The assay is classed as functional.
In assay [5] the target is DNA dC->dU-editing enzyme APOBEC-3A (Homo sapiens, UniProt P31941). In words: Dose Response confirmation of small molecule APOBEC3A DNA Deaminase Inhibitors via a fluorescence-based single-stranded DNA deaminase assay. [Related pubchem assays (depositor defined):AID493011, AID493024]. It counts as functional.
In assay [6] the target is T2, Polyadenylate-binding protein 1. In words: PABP inhibition in translation initiation, SAR follow-up (AID 435018). The assay is classed as functional.
Assay [7] has as its target DNA dC->dU-editing enzyme APOBEC-3G (Homo sapiens, UniProt Q9HC16). It counts as functional.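 Also: Dose-response counterscreen measuring inhibition of APOBEC3G DNA deaminase activity, run while confirming APOBEC3A inhibitors.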
The next assay deals with HeLa. In words: ATP-based viability loss in HeLa cells – cell-based, CellTiter-Glo luminescence, cherry-pick samples, cytotoxicity control for MITF activator project, dose response (AID 540259). The assay is classed as functional. To be noted: Homo sapiens.
The target of assay [8] is T3, Short transient receptor potential channel 4 (Mus musculus, UniProt Q9QUQ5).
T3 sequence (Q9QUQ5 whole entry): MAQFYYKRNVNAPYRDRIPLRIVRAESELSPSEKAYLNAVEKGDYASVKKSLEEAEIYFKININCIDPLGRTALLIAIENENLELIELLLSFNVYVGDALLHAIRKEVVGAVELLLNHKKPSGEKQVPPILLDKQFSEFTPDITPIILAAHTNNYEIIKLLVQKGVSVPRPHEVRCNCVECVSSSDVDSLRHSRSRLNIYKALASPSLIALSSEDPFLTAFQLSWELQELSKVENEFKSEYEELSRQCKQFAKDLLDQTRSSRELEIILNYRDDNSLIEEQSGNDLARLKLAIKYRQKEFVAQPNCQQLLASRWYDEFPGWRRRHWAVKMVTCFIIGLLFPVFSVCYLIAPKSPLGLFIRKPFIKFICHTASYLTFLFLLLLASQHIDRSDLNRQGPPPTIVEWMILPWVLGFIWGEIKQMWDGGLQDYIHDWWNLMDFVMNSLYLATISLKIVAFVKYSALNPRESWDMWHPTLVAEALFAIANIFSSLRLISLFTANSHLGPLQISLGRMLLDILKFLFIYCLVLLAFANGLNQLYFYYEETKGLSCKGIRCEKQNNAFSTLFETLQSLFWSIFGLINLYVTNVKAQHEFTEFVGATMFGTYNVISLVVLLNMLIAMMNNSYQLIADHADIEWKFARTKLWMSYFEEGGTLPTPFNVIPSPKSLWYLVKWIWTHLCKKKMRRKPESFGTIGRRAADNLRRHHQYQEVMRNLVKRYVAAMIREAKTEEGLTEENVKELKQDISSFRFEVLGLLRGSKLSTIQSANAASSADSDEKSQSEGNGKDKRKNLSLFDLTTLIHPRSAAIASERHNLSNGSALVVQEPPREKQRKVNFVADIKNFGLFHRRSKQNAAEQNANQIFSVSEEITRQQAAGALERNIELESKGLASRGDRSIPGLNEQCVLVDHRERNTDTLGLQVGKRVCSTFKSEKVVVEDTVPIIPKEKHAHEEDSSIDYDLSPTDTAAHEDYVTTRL
In words: calcium entry via TRPC4 opening agents – cell-based, HEK293 TRPC4/mu-opioid, Fluo-4 calcium, dose response (AID 434937). It counts as functional.

Assay [9] concerns the target T4, Type-1 angiotensin II receptor (Homo sapiens, UniProt P30556).
T4 sequence (P30556 whole entry): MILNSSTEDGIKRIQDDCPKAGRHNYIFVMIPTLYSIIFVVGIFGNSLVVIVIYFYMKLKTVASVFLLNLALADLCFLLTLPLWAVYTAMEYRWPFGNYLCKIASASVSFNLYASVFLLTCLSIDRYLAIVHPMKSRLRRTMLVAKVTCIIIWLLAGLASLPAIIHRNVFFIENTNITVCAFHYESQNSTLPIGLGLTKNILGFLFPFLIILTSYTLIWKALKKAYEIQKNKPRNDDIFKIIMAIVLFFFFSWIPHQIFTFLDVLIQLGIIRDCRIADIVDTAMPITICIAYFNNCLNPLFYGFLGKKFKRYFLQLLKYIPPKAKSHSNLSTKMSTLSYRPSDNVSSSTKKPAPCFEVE
In words: agonist activity at AGTR1 – cell-based, uHTS hits, selectivity assay for APJ receptor agonist project, dose response (AID 488865).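 Also: beta-arrestin recruitment to AT1 measured by enzyme fragment complementation luminescence.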 The assay is classed as functional.

The target of another assay is T5, Coagulation factor XII (Homo sapiens, UniProt P00748).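 Also: activated factor XIIa alpha cleaving a fluorogenic AMC peptide substrate; inhibitor potency from loss of enzyme activity.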
T5 sequence (P00748 whole entry): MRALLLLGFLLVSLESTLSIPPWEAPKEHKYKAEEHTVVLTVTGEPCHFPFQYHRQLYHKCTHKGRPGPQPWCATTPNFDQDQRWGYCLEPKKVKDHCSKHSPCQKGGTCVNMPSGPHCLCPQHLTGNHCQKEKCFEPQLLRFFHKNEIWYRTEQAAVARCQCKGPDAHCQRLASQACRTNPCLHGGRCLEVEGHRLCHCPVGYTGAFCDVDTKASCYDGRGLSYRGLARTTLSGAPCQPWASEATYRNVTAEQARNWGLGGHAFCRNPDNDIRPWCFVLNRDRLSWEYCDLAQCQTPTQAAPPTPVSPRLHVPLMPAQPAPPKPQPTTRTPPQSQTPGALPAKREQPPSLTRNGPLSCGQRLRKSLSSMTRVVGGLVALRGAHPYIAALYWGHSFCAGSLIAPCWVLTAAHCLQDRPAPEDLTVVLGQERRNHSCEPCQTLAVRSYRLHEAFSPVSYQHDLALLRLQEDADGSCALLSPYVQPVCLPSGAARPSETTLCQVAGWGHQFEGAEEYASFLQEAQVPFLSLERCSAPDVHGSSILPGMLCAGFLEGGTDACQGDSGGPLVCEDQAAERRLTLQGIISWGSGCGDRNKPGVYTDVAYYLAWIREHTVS
It counts as functional.

Assay [10] concerns the target G-protein coupled receptor 55 (Homo sapiens, UniProt Q9Y2T6). Description: inhibition of LPI-stimulated GPR55 beta-arrestin translocation – imaging, U2OS, beta-arrestin-GFP, LPI agonist, primary screen (AID 2013).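 Also: antagonist potency measured as reduced agonist-driven arrestin aggregation.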 The assay is classed as functional.
Assay [11] concerns the target T6, Fatty acid synthase (Homo sapiens, UniProt P49327). In words: inhibition of human FAS-TE enzyme activity – biochemical, endpoint fluorescence intensity, uHTS hits, dose response (AID 624327).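 Also: fluorescence from hydrolysis of an O-methyl fluorescein acyl ester substrate by the enzyme.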 It counts as functional.
Assay [12] deals with T6, Fatty acid synthase. In words: inhibition of human FAS-TE enzyme activity – biochemical, kinetic fluorescence intensity, dose response (AID 624326).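 Also: rate of fluorescence rise from hydrolysis of a fluorogenic O-methyl fluorescein ester substrate.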 The assay is classed as functional.
A further assay relates to HEK293. In words: cells. The assay is classed as functional, cell-based. As to conditions: Homo sapiens.
In assay [13] the target is T7, Nuclear receptor subfamily 0 group B member 1 (Homo sapiens, UniProt P51843).
T7 sequence (P51843 whole entry): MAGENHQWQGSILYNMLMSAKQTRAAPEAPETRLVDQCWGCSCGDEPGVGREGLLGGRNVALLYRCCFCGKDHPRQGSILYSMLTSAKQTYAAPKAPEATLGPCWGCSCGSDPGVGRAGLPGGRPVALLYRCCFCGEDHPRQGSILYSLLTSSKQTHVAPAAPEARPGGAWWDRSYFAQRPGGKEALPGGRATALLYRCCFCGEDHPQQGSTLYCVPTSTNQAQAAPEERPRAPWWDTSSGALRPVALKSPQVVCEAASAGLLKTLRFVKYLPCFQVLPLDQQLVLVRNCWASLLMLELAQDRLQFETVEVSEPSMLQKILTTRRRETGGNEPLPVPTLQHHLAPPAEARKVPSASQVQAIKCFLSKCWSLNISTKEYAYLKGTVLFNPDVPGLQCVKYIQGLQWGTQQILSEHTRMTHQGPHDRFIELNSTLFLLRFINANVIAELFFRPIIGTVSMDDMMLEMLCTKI
In words: Luminescence-based cell-based high throughput dose response assay for inhibitors of the orphan nuclear receptor subfamily 0, group B, member 1 (DAX1; NR0B1). [Related pubchem assays (depositor defined):AID504766, AID504790]. It counts as functional.

For a further assay, the target named is Hexokinase-1 (Homo sapiens, UniProt P19367). Description: SAR analysis of small molecule inhibitors of hexokinase domain containing I (HKDC1) in the hexokinase 1 selectivity assay. [Related pubchem assays (depositor defined):AID493160, AID493190]. The assay is classed as functional.
Another assay addresses Hexokinase HKDC1 (Homo sapiens, UniProt Q2TB90). Description: SAR analysis of small molecule inhibitors of hexokinase domain containing I (HKDC1). [Related pubchem assays (depositor defined):AID493160, AID493190]. The assay is classed as functional.
The next assay concerns the target Cytochrome P450 2D6 (Homo sapiens, UniProt P10635).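 Also: CYP2D6 member of a cytochrome P450 panel assay.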
A further assay concerns the target T8, Cytochrome P450 1A2 (Homo sapiens, UniProt P05177).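 Also: PubChem cytochrome P450 panel assay, CYP1A2 panel member.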
T8 sequence (P05177 whole entry): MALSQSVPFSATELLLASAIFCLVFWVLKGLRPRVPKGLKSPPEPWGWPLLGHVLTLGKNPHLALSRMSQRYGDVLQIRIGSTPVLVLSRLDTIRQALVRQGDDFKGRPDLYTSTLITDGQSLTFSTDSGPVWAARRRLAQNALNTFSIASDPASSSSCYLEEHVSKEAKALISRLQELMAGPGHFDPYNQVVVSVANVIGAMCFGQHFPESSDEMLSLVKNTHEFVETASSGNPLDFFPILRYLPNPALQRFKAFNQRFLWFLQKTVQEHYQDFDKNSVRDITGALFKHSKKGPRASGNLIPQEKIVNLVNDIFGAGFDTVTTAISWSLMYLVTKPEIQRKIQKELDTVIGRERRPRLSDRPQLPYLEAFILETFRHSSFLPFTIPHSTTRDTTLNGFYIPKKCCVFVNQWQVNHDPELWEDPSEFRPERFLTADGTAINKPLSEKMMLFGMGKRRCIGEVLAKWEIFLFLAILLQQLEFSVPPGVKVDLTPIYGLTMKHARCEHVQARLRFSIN

For another assay, the target named is Cytochrome P450 3A4 (Homo sapiens, UniProt P08684).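 Also: CYP3A4 tested as one member of a cytochrome P450 panel screen.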

Activity calls are given as the source filed them.

AC50, IC50 and EC50 data for 14 molecules are collected here from ChEMBL document CHEMBL1201862, “PubChem BioAssay data set” (2004).

The AC50 is the midpoint of the concentration-response curve, whichever way the signal moves. What is called IC50 is the point on the concentration scale where inhibition reaches its midpoint. In general, EC50 refers to the concentration giving half of the maximal effect.

T2 sequence (P11940 whole entry): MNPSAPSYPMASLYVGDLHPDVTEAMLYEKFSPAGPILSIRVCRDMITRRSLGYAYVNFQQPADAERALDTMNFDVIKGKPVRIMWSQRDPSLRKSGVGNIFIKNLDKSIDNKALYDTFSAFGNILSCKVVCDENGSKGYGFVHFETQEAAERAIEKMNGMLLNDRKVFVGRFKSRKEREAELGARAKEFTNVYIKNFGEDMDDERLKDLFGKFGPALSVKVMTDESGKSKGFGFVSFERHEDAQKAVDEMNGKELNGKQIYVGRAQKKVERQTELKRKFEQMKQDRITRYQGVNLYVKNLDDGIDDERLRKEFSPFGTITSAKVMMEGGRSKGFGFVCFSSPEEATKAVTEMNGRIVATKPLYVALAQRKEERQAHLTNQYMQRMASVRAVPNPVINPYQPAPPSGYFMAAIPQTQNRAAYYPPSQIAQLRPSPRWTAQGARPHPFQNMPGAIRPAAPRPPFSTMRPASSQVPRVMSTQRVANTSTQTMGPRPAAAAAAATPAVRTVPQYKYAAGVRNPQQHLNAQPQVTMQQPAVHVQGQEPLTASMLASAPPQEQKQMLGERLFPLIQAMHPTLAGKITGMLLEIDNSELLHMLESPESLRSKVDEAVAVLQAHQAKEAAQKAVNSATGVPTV
T6 sequence (P49327 whole entry): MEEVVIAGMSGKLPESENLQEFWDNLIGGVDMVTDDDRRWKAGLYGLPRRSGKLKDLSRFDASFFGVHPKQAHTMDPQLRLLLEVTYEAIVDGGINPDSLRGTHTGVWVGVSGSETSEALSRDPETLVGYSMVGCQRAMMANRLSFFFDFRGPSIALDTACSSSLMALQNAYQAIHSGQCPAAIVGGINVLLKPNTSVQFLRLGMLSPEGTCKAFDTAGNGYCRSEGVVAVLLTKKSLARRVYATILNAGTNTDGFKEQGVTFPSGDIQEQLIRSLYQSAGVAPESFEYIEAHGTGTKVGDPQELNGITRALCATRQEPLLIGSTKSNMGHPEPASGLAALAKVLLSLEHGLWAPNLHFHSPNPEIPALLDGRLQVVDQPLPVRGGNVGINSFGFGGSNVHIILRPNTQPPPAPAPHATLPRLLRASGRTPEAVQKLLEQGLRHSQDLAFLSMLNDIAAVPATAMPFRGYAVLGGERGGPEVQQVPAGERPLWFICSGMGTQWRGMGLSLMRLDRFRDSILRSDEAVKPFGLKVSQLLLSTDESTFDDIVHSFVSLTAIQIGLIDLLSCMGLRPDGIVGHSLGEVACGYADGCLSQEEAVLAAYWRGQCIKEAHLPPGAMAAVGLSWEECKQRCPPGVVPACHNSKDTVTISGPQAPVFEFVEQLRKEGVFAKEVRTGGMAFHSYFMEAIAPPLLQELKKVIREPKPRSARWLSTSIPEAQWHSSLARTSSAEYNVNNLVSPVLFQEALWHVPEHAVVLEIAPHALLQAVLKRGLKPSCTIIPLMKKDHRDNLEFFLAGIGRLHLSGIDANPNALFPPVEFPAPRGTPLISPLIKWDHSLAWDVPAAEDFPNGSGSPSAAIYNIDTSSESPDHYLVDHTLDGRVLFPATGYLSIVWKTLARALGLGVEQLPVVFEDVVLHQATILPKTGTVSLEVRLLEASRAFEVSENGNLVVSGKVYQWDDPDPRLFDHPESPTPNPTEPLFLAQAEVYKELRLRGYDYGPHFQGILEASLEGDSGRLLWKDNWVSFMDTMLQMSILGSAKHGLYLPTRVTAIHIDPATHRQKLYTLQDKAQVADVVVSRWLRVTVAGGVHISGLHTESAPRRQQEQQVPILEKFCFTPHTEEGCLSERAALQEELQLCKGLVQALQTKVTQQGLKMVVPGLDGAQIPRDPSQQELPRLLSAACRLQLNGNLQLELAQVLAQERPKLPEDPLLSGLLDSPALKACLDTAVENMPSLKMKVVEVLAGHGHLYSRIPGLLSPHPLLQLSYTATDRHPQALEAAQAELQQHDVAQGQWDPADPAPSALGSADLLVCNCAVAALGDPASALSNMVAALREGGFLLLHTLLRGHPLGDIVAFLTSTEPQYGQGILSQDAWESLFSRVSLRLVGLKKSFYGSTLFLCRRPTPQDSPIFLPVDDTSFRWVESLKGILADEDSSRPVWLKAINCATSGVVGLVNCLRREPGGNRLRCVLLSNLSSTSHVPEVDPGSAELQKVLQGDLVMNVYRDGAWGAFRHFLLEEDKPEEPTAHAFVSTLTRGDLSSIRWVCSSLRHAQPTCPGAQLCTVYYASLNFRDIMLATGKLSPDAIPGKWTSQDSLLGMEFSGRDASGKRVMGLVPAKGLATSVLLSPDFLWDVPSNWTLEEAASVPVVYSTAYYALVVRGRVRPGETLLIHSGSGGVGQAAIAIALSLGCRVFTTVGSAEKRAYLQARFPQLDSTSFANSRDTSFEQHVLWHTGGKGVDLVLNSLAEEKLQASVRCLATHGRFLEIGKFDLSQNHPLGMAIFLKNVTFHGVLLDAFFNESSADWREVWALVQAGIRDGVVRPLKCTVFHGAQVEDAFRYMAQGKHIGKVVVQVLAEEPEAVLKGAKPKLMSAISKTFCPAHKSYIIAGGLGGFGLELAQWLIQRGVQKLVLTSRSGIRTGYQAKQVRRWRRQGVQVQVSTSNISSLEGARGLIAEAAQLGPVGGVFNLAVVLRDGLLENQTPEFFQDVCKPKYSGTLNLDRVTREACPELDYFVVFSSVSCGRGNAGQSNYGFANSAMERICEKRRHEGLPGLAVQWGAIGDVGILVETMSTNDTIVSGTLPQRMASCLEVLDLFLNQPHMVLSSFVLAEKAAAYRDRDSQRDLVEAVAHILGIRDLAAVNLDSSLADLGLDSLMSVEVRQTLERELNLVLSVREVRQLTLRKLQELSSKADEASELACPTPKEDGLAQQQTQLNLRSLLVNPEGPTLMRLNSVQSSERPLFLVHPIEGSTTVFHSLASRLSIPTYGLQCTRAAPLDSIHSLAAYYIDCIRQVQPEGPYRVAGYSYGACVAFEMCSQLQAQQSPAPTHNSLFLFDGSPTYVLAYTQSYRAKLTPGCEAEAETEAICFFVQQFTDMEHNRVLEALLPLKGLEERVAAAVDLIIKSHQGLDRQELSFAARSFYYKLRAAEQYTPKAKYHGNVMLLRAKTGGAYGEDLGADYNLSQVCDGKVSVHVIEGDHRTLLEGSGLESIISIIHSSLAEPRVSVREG
Voltage-gated inwardly rectifying potassium channel KCNH2, sequence (Q12809 whole entry): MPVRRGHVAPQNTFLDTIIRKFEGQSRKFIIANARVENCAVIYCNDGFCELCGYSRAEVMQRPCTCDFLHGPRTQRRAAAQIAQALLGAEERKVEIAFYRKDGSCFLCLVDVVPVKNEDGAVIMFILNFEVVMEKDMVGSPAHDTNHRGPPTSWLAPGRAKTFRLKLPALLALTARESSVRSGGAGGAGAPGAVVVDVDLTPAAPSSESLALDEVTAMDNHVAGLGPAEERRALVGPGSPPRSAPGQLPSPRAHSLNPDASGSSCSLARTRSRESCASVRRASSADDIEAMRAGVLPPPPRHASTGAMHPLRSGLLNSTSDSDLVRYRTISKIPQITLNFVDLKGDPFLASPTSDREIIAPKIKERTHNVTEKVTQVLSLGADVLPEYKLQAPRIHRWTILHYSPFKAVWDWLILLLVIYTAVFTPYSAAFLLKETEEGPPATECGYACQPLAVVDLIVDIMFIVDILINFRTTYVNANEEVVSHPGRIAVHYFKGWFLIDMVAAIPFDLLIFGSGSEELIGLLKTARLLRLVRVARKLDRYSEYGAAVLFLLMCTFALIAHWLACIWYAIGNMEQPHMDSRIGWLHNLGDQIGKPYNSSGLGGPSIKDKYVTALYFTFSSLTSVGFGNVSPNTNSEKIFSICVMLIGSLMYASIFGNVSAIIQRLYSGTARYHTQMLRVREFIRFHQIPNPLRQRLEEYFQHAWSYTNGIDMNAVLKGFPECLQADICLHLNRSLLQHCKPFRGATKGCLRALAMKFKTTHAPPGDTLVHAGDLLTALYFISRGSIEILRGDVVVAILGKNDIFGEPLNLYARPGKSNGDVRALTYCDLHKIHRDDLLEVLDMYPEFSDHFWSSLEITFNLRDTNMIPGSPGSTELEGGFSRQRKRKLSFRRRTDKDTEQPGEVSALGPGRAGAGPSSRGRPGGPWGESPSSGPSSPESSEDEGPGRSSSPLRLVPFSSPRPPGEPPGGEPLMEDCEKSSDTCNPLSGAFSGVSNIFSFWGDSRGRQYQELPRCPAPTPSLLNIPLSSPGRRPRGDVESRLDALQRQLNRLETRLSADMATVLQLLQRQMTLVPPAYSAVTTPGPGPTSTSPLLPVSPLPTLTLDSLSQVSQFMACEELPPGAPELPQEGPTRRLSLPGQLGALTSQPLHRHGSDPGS
Cytochrome P450 3A4, sequence (P08684 whole entry): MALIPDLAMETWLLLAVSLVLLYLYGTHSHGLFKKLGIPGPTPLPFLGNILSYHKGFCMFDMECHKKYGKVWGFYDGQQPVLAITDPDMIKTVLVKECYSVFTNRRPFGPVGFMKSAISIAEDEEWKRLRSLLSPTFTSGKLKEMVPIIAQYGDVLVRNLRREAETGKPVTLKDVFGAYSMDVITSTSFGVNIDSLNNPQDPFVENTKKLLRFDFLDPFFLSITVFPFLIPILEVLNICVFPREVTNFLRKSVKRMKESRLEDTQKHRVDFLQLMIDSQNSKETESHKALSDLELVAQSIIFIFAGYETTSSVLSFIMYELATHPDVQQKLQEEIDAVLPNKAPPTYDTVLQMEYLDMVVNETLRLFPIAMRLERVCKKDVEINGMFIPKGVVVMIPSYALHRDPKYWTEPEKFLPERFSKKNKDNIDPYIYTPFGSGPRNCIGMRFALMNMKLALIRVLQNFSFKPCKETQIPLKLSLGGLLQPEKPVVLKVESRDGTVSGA

For the molecule `C[C@]12CC[C@@H](O)CC1CC[C@@H]1[C@@H]2CC[C@]2(C)C(=O)CC[C@@H]12` (some centres undefined), the half-maximal activity concentration (AC50) in assay [1] is 25.1 µM (inconclusive).

With `CC(C)NC(=O)C(C)N1CCN(S(=O)(=O)c2ccc3ccccc3c2)CC1` (centres undefined), the half-inhibitory concentration (IC50) in assay [2] is 88.9 µM (active); in assay [3], 5.92 µM (active); in assay [4], 27.6 µM (active); in assay [5], 3.38 µM (active); in assay [6] it was 20.5 µM (active); in [7], 3.72 µM (active).

For `Cc1nc(C(=O)Nc2ccccc2)sc1C(=O)Nc1ccccc1`, the half-maximal activity concentration (AC50) in the assay with HeLa was 58.6 µM (active).

Take `CC1CCCCN1S(=O)(=O)c1ccc(C(=O)N(CCCN(C)C)c2nc3ccc(Br)cc3s2)cc1` (centres undefined): the EC50 in [8] was 4.73 µM (active); in assay [9], > 100 µM (inactive).

Turning to `CN(C)S(=O)(=O)Oc1ccsc1C(=O)Nc1ccc(Cl)c(Cl)c1`, at Coagulation factor XII, the IC50 is > 50 µM (inactive).

Regarding `Cc1cc(Cl)ccc1NC(=S)N(CCCN1CCOCC1)Cc1cccs1`, in [10], the half-maximal inhibitory concentration (IC50) was 6.24 µM (active).

Turning to `O=S(=O)(c1ccccc1)n1ccc(-c2cnc(-c3ccccc3)s2)n1`, in the assay with HeLa, the AC50 is 101 µM (active). For the same molecule, the concentration for half-maximal inhibition (IC50) on Fatty acid synthase [11] was 7.41 µM (active); at Fatty acid synthase [12], 6.85 µM (active).

Turning to `CCC(c1nnnn1Cc1ccccc1)N(Cc1cc2cc(OC)ccc2[nH]c1=O)CC1CCCO1` (centres undefined), in assay [9], the EC50 is > 100 µM (inactive).

`Cc1ccc2nc(N3CCOCC3)c(C=O)cc2c1`: the IC50 (with HEK293; in [13]) was > 67.5 µM (inactive) in each case.

Regarding `CN1CCN(CCNC(=O)c2cn(Cc3ccccc3F)nn2)CC1`, the IC50 at Coagulation factor XII is > 50 µM (inactive).

As for `N#Cc1ccc(CSc2nnc(NC(=O)c3ccco3)s2)cc1`, the IC50 at Hexokinase-1 and at Hexokinase HKDC1 was > 80 µM (inactive) in each case.

As for `Cc1cccc(/C=C\c2nc3ccccc3c(=O)n2Cc2ccccc2)c1`, the IC50 on Hexokinase-1 and on Hexokinase HKDC1 was > 80 µM (inactive) throughout.

Turning to `COc1ccc(S(=O)(=O)N2CCN(C(=O)c3ccc(O)nn3)CC2)cc1OC`, the IC50 (in the assay with HEK293; in [13]) was > 67.5 µM (inactive) in each case.

On to `COc1cccc(C(=O)NCCN2CCN(c3ccc(Cl)cc3)CC2)c1`, for which the AC50 on Cytochrome P450 2D6 is 31.6 µM (inconclusive); at Cytochrome P450 1A2, 12.6 µM (inconclusive); on Cytochrome P450 3A4 it was 15.8 µM (inconclusive); in assay [1], 1 µM (inconclusive).
